Patent publication US20250115583A1, “BICYCLIC INDAZOLE GLUCOCORTICOID RECEPTOR ANTAGONISTS” (Corcept Therapeutics Incorporated, priority 2021, published 2025)

molecular target: glucocorticoid receptor (Homo sapiens (Human), UniProt P04150); experiment: HepG2 TAT assay: inhibition of dexamethasone-induced tyrosine aminotransferase (TAT) activity; type: cell-based; details: HepG2 cells, challenge of 100 nM dexamethasone, 18-24 hr; IC50 converted to Ki by Cheng and Prusoff equation
Method in brief: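 Cells lysed 15 min at 4 °C; TAT enzyme reaction 2 h at 37 °C, stopped with KOH, 30 min further at 37 °C. Inhibition fitted to 4-parameter logistic.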

glucocorticoid receptor, sequence (P04150 whole entry): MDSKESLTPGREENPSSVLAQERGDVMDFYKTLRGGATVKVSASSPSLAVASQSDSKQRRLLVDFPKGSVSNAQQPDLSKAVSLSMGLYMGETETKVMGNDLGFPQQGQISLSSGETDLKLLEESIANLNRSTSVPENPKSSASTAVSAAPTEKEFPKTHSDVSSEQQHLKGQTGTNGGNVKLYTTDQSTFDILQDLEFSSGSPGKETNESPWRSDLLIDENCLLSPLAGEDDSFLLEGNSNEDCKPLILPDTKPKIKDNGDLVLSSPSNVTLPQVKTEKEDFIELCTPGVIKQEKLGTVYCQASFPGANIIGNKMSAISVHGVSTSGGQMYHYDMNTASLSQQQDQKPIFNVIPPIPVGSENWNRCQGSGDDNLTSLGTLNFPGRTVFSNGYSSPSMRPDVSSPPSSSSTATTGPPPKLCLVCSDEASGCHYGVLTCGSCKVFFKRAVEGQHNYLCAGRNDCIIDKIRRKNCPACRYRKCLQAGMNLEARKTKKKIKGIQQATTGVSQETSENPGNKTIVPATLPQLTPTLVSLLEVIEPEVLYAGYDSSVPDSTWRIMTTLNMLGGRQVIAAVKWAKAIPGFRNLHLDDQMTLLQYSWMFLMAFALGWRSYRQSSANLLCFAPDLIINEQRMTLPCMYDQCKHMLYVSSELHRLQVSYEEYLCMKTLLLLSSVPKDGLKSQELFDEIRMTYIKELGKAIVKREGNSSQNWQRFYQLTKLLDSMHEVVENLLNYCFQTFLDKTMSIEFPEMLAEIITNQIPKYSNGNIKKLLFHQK

| Compound | Ki [nM] |
| --- | --- |
| CNS(=O)(=O)N1C[C@@H]2[C@@H](c3ccccc3)[C@]2(c2cc3cnn(-c4ccc(F)cc4)c3cc2C)C1 [Example 106] | 55 |
| Cc1cc2c(cnn2-c2ccc(F)cc2)cc1[C@@]12CN(S(=O)(=O)CC3CCOCC3)C[C@@H]1[C@H]2c1ccccc1 [Example 107] | 32 |
| Cc1cc2c(cnn2-c2ccc(F)cc2)cc1[C@@]12CN(S(=O)(=O)N(C)C)C[C@@H]1[C@H]2c1ccccc1 [Example 108] | 16 |
| COC1CCN(S(=O)(=O)N2C[C@@H]3[C@@H](c4ccccc4)[C@]3(c3cc4cnn(-c5ccc(F)cc5)c4cc3C)C2)CC1 [Example 109] | 13 |
| Cc1cc2c(cnn2-c2ccc(F)cc2)cc1C12CN(S(=O)(=O)c3cnn(C)n3)CC1C2c1ncco1 (centres unmarked) [Example 133, 2-(1-(1-(4-fluorophenyl)-6-methyl-1H-indazol-5-yl)-3-((2-methyl-2H-1,2,3-triazol-4-yl)sulfonyl)-3-azabicyclo[3.1.0]hexan-6-yl)oxazole] | 260 |
| Cc1cc2c(cnn2-c2ccc(F)cc2)cc1[C@@]12CN(S(=O)(=O)c3cnn(C)n3)C[C@@H]1[C@H]2c1nc2ccccc2o1 [Example 134, 2-(1-(1-(4-fluorophenyl)-6-methyl-1H-indazol-5-yl)-3-((2-methyl-2H-1,2,3-triazol-4-yl)sulfonyl)-3-azabicyclo[3.1.0]hexan-6-yl)benzo[d]oxazole] | 55 |
| Cc1cc2c(cnn2-c2ccc(F)cc2)cc1[C@]12CN(C(=O)c3cnnn3C)C[C@H]1[C@@H]2c1ccccc1 [Example 144, (1-(1-(4-fluorophenyl)-6-methyl-1H-indazol-5-yl)-6-phenyl-3-azabicyclo[3.1.0]hexan-3-yl)(1-methyl-1H-l,2,3-triazol-5-yl)methanone] | 120 |
| Cc1cc2c(cnn2-c2ccc(F)cc2)cc1[C@]12CN(C(=O)c3cn(C)nn3)C[C@H]1[C@@H]2c1ccccc1 [Example 147, (1-(1-(4-fluorophenyl)-6-methyl-1H-indazol-5-yl)-6-phenyl-3-azabicyclo[3.1.0]hexan-3-yl)(1-methyl-1H-l,2,3-triazol-4-yl)methanone] | 37 |
